In US20220313658A1, “YAP Inhibition for Wound Healing” (The Board of Trustees of the Leland Stanford Junior …, priority 2019, published 2022):

Key:
[1] = test system: mechanically loaded dorsal incisional wounds; assay: Mechanical loading of dorsal incisional wounds with Verteporfin treatment; assay type: in vivo, mouse
Procedure: 20 mm-long linear wounds were produced on the dorsum of P60 En-1^Cre-ERT;Ai6 mice and then closed with sutures. On POD 4, a loading device (constructed from 22 mm expansion screws and Luhr plate supports) was secured over each wound with adhesive and simple interrupted sutures. For mice receiving mechanotransduction signaling inhibitor, 30 μL of Verteporfin (1 mg/mL) was injected along the suture line both at POD 0 and POD 4; PBS was injected into wounds for vehicle controls. Device tension was increased by distracting expansion 2 mm every 2 days for 10 days total. Mice with unexpanded devices served as sham surgery controls. On POD 14, wounds were harvested and processed for histology to characterize the effects of increased wound tension on activation of ENFs to scarring pEPFs. In FIG. 2, G-I, a minimum of 4 mice was used for each experimental group.
Tissues were fixed in 2% paraformaldehyde for 16 h at 4° C. Samples were prepared for embedding by soaking in 30% sucrose in PBS for 1 week at 4° C. Samples were then removed from the sucrose solution, and tissue blocks were prepared by embedding in Tissue Tek U.C.T. (Sakura Finetek) under dry ice to achieve rapid freezing. Frozen blocks were mounted on a Thermo Scientific CryoStar NX70 cryostat, and 10 μm-thick sections were transferred to SuperfrostfPlus adhesive slides (Fisher). For hematoxylin and eosin staining, standard protocols were used with no modifications. For immunofluorescent staining, slides were blocked for 1 hr with Power Block (Biogenex) prior to addition of the following primary antibodies: Abeam ab34710 (anti-collagen type I), Abeam ab28340 (anti-CD26), Invitrogen MA5-15915 (anti-Dlk1), Abeam ab51317 (anti-Scat), Abeam ab5694 (anti-α-SMA), Santa Cruz Biotechnology sc-101199 (anti-YAP), Abeam ab7800 (anti-CK14), and Abeam ab52625 (anti-CK19). Slides were then incubated for 1 h with Alexa Fluor 568 or Alexa Fluor 647-conjugated anti-rabbit, anti-rat, or anti-mouse antibodies (Invitrogen). Finally, slides were mounted in Fluoromount-G mounting solution with DAPI (Thermo Fisher). Brightfield images were acquired with a Leica DMI4000B microscope, while fluorescent images were acquired with a Leica DM6000 SP5 upright confocal microscope.
Then, whether mechanical tension similarly promoted ENF-to-EPF transition in vivo was assessed. […]

ENFs = assay: Bulk RNA-seq of ENFs cultured on TCPS in the presence of Verteporfin; assay type: cell-based, mouse
Procedure: Total RNA was harvested by lysing cells in Trizol reagent (Invitrogen), RNA extraction and library preparation was performed by the Stanford Functional Genomics facility using standard Qiagen kits and protocols. Directional RNA-Sal libraries were analyzed with an Agilent Bioanalyzer to ensure successful library creation, and then sequenced with the Illumina HiSeq 4000 System (2×75 bp, 150 cycles), Paired-end reads were mapped to the mouse genome reference sequence mm10 using the STAR aligner. […] It is common practice to normalize read counts by the total number of reads and the length of each transcript, yielding reads per kilobase mapped (RPKM) values. However, such analysis may be skewed towards a few highly expressed genes that dominate the total lane count. Thus, instead, counts were normalized by a size factor, calculated by taking the median of the ratios of observed counts to those of a pseudo-reference sample (whose counts are the geometric means of each gene across all samples). For hypothesis testing of differential gene transcription, the read counts were modeled according to a negative binomial distribution, with the variance considered as the sum of the shot noise term and a locally regressed non-parametric smooth function of the mean. […] Raw RNA-seq data can be accessed at the following Github repository: https://github.com/[…]. […] Ranked whole genome enrichment analyses in FIGS. 6 and 7 were performed using GSEA software developed by the Broad Institute with nominal p value and false discovery rate (FDR) cutoffs of 0.01 and 0.25, respectively. All g.Profiler and GSEA results are available in the following Github repository: https://github.com/[…]. In order to ascertain whether in vitro En-1 activation involved a shift toward a fibrotic transcriptomic profile, bulk ENFs were isolated from En-1^Cre;R26^mTmG mice and grew these cells on TCPS for 2 days (at which point ENFs remain single cells), 7 days (when ENFs form colonies), or 14 days (when ENFs activate En-1) (experimental schematic in FIG. 3, A). Cultured cells were then subjected to bulk RNA-seq analysis. Next, to assess if postnatal En-1 activation was dependent on mechanotransduction signaling, ENFs cultured on TCPS were grown in the presence of Verteporfin. After 14 days in culture, treated cells were subjected to RNA-seq. […] GO term analysis in g.

dorsal excisional wounds = assay: Example 2: excisional wound model, hair regrowth after single Verteporfin injection; assay type: in vivo, mouse
Text: Adult mice were used for cutaneous wound healing experiments in accordance with well-established protocols. Briefly, mice were anesthetized (2% isofluorane), their dorsal hair was removed with depilatory cream, and the dorsal skin was prepped with alcohol wipes. Next, two 6 mm full-thickness circular wounds were placed through the panniculus carnosus on the dorsum of each animal at the same level, roughly 6 mm below the ears and 4 mm lateral to the midline. The wounds were then stented open by 12 mm diameter silicone rings secured around the wound perimeter with glue and 8 simple interrupted Ethilon 6-0 sutures (Ethicon). For mice receiving mechanotransduction inhibitor, 30 μL of Verteporfin (1 mg/mL) was injected locally into the wound base; PBS was injected into wounds for vehicle controls. Post-operative analgesia was accomplished with buprenorphine 0.05 mg/kg every four hours for three doses, and then as indicated. Dressings were changed every other day under anesthesia. […]

[2] = ENFs on TCPS, 14 days with Verteporfin
[3] = single local injection immediately following wounding

## verteporfin
[1]; 30 μL of 1 mg/mL injected at POD 0 and POD 4, harvested POD 14
  Gross appearance of mechanically loaded wounds: grossly resembled control (non-mechanically loaded) wounds
[1]; compared to mechanically loaded, non-Verteporfin treated wounds, POD 14
  Number of pEPFs (GFP+ cells) in wounds: significantly fewer pEPFs
[1]; compared to untreated mechanically loaded wounds, POD 14
  YAP and a-SMA expression (immunofluorescent staining): decreased YAP and a-SMA expression
[1]; mechanically loaded wounds, POD 14
  Number of YAP+ cells in wounds: significantly fewer YAP+ cells
ENFs; [2]
  Expression of ECM / pro-fibrotic matrix genes: reduced expression of various ECM genes
  GO term enrichment (g.Profiler): decreased enrichment of ECM-related terms and relatively higher muscle development-related terms
ENFs; ENFs on TCPS, 14 days with Verteporfin, vs untreated cells
  Transcriptomic shift over time in culture (RNA-seq): attenuated the transcriptomic shift observed in untreated cells
ENFs; ENFs on TCPS, 14 days with Verteporfin, listed as Vert
  Expression of ECM / pro-fibrotic matrix genes: mitigated
ENFs; ENFs treated with Verteporfin for 14 days
  Principal component analysis of RNA-seq data: more closely resembled untreated cells that had only been in culture for 2 days
Dorsal excisional wounds; POD 90 (FIG. 13, C)
  Regrowth of dermal appendages: regrowth of hair follicles and other dermal appendages
Dorsal excisional wounds; [3]
  Hair regrowth: dramatic increase in hair regrowth
  Regeneration of new hair follicles (gross, histology, immunohistochemistry): Regeneration of new hair follicles in Verteporfin-treated wounds was observed
  Wound closure: did not delay wound closure
